Source: patent US20240408218A1, “CONJUGATES OF GLUCAGON AND AMPK ACTIVATORS” (KØBENHAVNS UNIVERSITET, priority 2021, published 2024)

Columns and labels:
[1] = Body weight in diet-induced obesity (DIO) mice, 7 days treatment; assay type: in vivo; details: s.c. once daily
Procedure: C57BL6J male mice, in the following referred to as diet-induced obesity (DIO) mice, were maintained on a high-fat diet (58% energy from fat) and had, for each study, an average body weight of more than 45 gram prior to study start. Mice were either housed individually or double-housed. The mice were maintained on a 12 h dark-light cycle at 21-23° C. Compounds were administered subcutaneously once daily (between 2 pm-5 pm) and food intake (FI) and body weight (BW) measured at the corresponding time. For body composition, measures of fat and lean mass were performed prior to the study (1-3 days prior to study start) and on the final day of the study using an MRI scanner (EchoMRI). The group of mice injected with a vehicle (saline) served as the control group.

[2] = background, Myers et al. Science 2017; cited from earlier work

Row | Compound | reduction in body weight percentage (BW %) ([1]; FIG. 3, conjugate 100 nmol/kg or equimolar doses) [%] | adverse effect halting use of the compound [2] | reduction in body weight (BW %) compared to control group ([1]; FIG. 9, conjugate 100 nmol/kg or equimolar doses) [%]
1 | O[C@@H]1CO[C@H]2[C@@H]1OC[C@H]2Oc1nc2c(Cl)c(-c3ccc(-c4ccccc4)cc3)cnc2[nH]1 [MK-8722, (3R,3aR,6R,6aR)-6-((6-([1,1′-biphenyl]-4-yl)-7-chloro-3H-imidazo[4,5-b]pyridin-2-yl)oxy)hexahydrofuro[3,2-b]furan-3-ol, reference compound] | ~4 | induction of cardiac hypertrophy | 
2 | NC(=O)c1ncn([C@@H]2O[C@H](CO)[C@@H](O)[C@H]2O)c1N [AICAR, 5-Aminoimidazole-4-carboxamide 1-β-D-ribofuranoside, reference compound] |  |  | ~4
